Values of other authors in patent US20170128514A1, “PHARMACEUTICAL COMPOSITION FOR TREATING CARDIO-CEREBROVASCULAR DISEASES AND METHOD FOR PREPARING THE SAME” (priority 2014, published 2017).

Assays:
[1] = system: acute coronary syndrome (ACS); conditions: human, in vivo
[2] = system: thrombocytopenia caused by heparin

hirudin
efficacy in treating acute coronary syndrome (ACS) compared with heparin [1]: more significant than the heparin | patients with blood platelets recovered and normal ([2]; 14.4 hrs. after the treatment): 88.7% | bleeding ([2]; in vivo): bleeding only occurs in a dose much larger than the required dose for anti-coagulation
